In US12552772B2, “2-pyrazole anilines and related analogs for inhibiting YAP/TAZ-TEAD” (KATHOLIEKE UNIVERSITEIT LEUVEN, priority 2021, dated 2026) one finds EC50 data, which are given here for 29 compounds.

Format in all cases: cell-based
Experiment [1] relates to YAP/TAZ-TEAD transcription. In words: Reporter gene assay for measuring the inhibition of YAP/TAZ-TEAD transcription (TEAD-responsive element luciferase reporter in Hek293T cells). The settings on record: 24 hours incubation. In short, it runs like this: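 Percent inhibition, scaled between vehicle (0%) and a positive control inhibitor (100%), came from SteadyLite luciferase signal after 24 h compound exposure at 37 °C/5% CO2. Cells: Hek293T transiently carrying a TEAD-responsive luciferase reporter; EC50 derived.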
(In general: In a reporter assay the amount or activity of a reporter protein is the signal.)

Experiment [2] deals with NCI-H226. Nature of the experiment: Mesothelioma cell line proliferation assay (ATPlite), NCI-H226. The settings on record: NCI-H226 cells, 6 days, ATPlite cell viability. How it is done:
(§1) Mesothelioma cell lines, NCI-H226 and NCI-H2052 (all sourced from the ATCC cell culture collection) are plated in 96-well plates (Corning® 96 Well White Polystyrene Microplate clear flat bottom, white polystyrene (TC-Treated)), at 1500 cells/well in full medium (RPMI 1640 ATCC modification with L-glutamine, HEPES, Phenol Red, Sodium Pyruvate, High glucose, Low sodium bicarbonate and 10% fetal bovine serum). Cells are incubated overnight at 37° C. in an incubator with 5% CO2. Then compounds, dissolved in DMSO, are added in dose-response. Cells are incubated with compound dilutions for another 6 days at 37° C. in an incubator with 5% CO2. Cell viability is quantitated using the ATPlite kit (Perkin-Elmer) and the luminescence is read-out using an Envision instrument (Perkin-Elmer). The amount of relative light units produced using the ATPlite kit is used to calculated percent of inhibition.
(§2) The activities of example compounds tested are depicted in the table below. The activity ranges A, B and C refer to EC50 values in the mesothelioma cell line proliferation assay as described as follows: “A”: EC50<1 μM; “B”: 1 μM s EC50≤10 μM and “C”: EC50>10 μM. NT: not tested.
A general note: ATP-based viability assays read luminescence as a measure of living cells.

The test system of experiment [3] is NCI-H2052. In words: Mesothelioma cell line proliferation assay (ATPlite), NCI-H2052. The settings on record: NCI-H2052 cells, 6 days, ATPlite cell viability. The protocol:
as §1, §2

The term EC50 denotes the midpoint of the concentration-response curve. A high value points to weaker potency. In the case of `C=CC(=O)NCc1cnc(C2CCC(F)(F)CC2)cc1-c1ccn(C(F)F)n1` [Cpd. No. 223, N-((6-(4,4-difluorocyclohexyl)-4-(1-(difluoromethyl)-1H-pyrazol-3-yl)pyridin-3-yl)methyl)acrylamide], the EC50 in experiment [1] (Homo sapiens, HEK-293T) is less than 1000 nM; in experiment [2] (Homo sapiens, 144 h), less than 1000 nM; in experiment [3] (Homo sapiens, NCI-H2052, 144 h) it was 1000 to 10000 nM. For the compound `C=CC(=O)NCc1cc(-c2ccc(F)cc2)cc(-c2ccn(C(F)F)n2)n1` [Cpd. No. 225, N-((6-(1-(difluoromethyl)-1H-pyrazol-3-yl)-4-(4-fluorophenyl)pyridin-2-yl)methyl)acrylamide], the EC50 in experiment [1] (Homo sapiens, HEK-293T) is less than 1000 nM; in experiment [2] (Homo sapiens, 144 h), less than 1000 nM; in experiment [3] (Homo sapiens, NCI-H2052, 144 h), 1000 to 10000 nM.

As to `C=CC(=O)NCc1cc(C2CCC(F)(F)CC2)cc(-c2ccn(C(F)F)n2)n1` [Cpd. No. 228, N-((4-(4,4-difluorocyclohexyl)-6-(1-(difluoromethyl)-1H-pyrazol-3-yl)pyridin-2-yl)methyl)acrylamide], the EC50 is less than 1000 nM in experiment [1] (Homo sapiens, HEK-293T); less than 1000 nM in experiment [2] (Homo sapiens, 144 h); more than 10000 nM in experiment [3] (Homo sapiens, NCI-H2052, 144 h). As for `C=CC(=O)NCc1cnc(-c2ccc(F)cc2)cc1-c1cc2n(n1)CCCC2` [Cpd. No. 231, N-((6-(4-fluorophenyl)-4-(4,5,6,7-tetrahydropyrazolo[1,5-a]pyridin-2-yl)pyridin-3-yl)methyl)acrylamide], the EC50 in experiment [1] (Homo sapiens, HEK-293T) was less than 1000 nM; in experiment [2] (Homo sapiens, 144 h) it was less than 1000 nM; in experiment [3] (Homo sapiens, NCI-H2052, 144 h), more than 10000 nM. Turning to `C=CC(=O)NCc1cnc(-c2ccc(F)cc2)cc1-n1nnc(C)n1` [Cpd. No. 249, N-((6-(4-fluorophenyl)-4-(5-methyl-2H-tetrazol-2-yl)pyridin-3-yl)methyl)acrylamide], the EC50 in experiment [1] (Homo sapiens, HEK-293T) is less than 1000 nM; in experiment [2] (Homo sapiens, 144 h), less than 1000 nM; in experiment [3] (Homo sapiens, NCI-H2052, 144 h), 1000 to 10000 nM. Consider `C=CC(=O)NCc1cnc(-c2ccc(F)cc2)nc1-c1ccn(C)n1` [Cpd. No. 253, N-((2-(4-fluorophenyl)-4-(1-methyl-1H-pyrazol-3-yl)pyrimidin-5-yl)methyl)acrylamide], for which the EC50 in experiment [1] (Homo sapiens, HEK-293T) was less than 1000 nM; in experiment [2] (Homo sapiens, 144 h), less than 1000 nM; in experiment [3] (Homo sapiens, NCI-H2052, 144 h), less than 1000 nM.

Consider `C=CC(=O)NCc1cc(-c2ccc(F)cc2)nc(-c2ccn(C(F)F)n2)n1` [Cpd. No. 255, N-((2-(1-(difluoromethyl)-1H-pyrazol-3-yl)-6-(4-fluorophenyl)pyrimidin-4-yl)methyl)acrylamide], for which the half-maximal effective concentration (EC50) in experiment [1] (Homo sapiens, HEK-293T) was less than 1000 nM; in experiment [2] (Homo sapiens, 144 h), less than 1000 nM; in experiment [3] (Homo sapiens, NCI-H2052, 144 h) it was 1000 to 10000 nM. For the compound `C=CC(=O)N1CCC(c2ccc(-c3ccc(F)cc3)cc2-c2ccn(C)n2)C1` (stereo not shown) [Cpd. No. 258, 1-(3-(4′-fluoro-3-(1-methyl-1H-pyrazol-3-yl)-[1,1′-biphenyl]-4-yl)pyrrolidin-1-yl)prop-2-en-1-one], the EC50 in experiment [1] (Homo sapiens, HEK-293T) is less than 1000 nM; in experiment [2] (Homo sapiens, 144 h) it was less than 1000 nM; in experiment [3] (Homo sapiens, NCI-H2052, 144 h) it was less than 1000 nM. As for `C=CC(=O)N1CCC(c2ccc(-c3ccc(F)cc3)cc2-c2ccn(C(F)F)n2)C1` (stereo not shown) [Cpd. No. 261, 1-(3-(3-(1-(difluoromethyl)-1H-pyrazol-3-yl)-4′-fluoro-[1,1′-biphenyl]-4-yl)pyrrolidin-1-yl)prop-2-en-1-one], the EC50 is less than 1000 nM in experiment [1] (Homo sapiens, HEK-293T); less than 1000 nM in experiment [2] (Homo sapiens, 144 h); 1000 to 10000 nM in experiment [3]. In the case of `C=CC(=O)N1CCC(c2ccc(-c3ccc(F)cc3)cc2-c2ccn(C(F)F)n2)C1` (stereo not shown) [Cpd. No. 261-En1, 1-(3-(3-(1-(difluoromethyl)-1H-pyrazol-3-yl)-4′-fluoro-[1,1′-biphenyl]-4-yl)pyrrolidin-1-yl)prop-2-en-1-one], the EC50 was less than 1000 nM in experiment [1], less than 1000 nM in experiment [2] and 1000 to 10000 nM in experiment [3]. Consider `C=CC(=O)Nc1cncc(-c2cccc(-c3ccn(Cc4ccccc4)n3)c2)c1` [compound 004, N-(5-(3-(1-benzyl-1H-pyrazol-3-yl)phenyl)pyridin-3-yl)acrylamide], for which the EC50 is less than 1000 nM in experiment [1] (Homo sapiens, HEK-293T) and 1000 to 10000 nM in experiment [2] (Homo sapiens, 144 h). As for `NS(=O)(=O)CCNc1ccc(-c2ccccc2)cc1-c1ccn(Cc2cccnc2)n1` [compound 054, 2-((3-(1-(pyridin-3-ylmethyl)-1H-pyrazol-3-yl)-[1,1′-biphenyl]-4-yl)amino)ethane-1-sulfonamide], the EC50 was less than 1000 nM in experiment [1] (Homo sapiens, HEK-293T) and less than 1000 nM in experiment [2] (Homo sapiens, 144 h). `C=CC(=O)NCCNc1ccc(-c2ccccc2)cc1-c1ccn(Cc2cccnc2)n1` [compound 075, N-(2-((3-(1-(pyridin-3-ylmethyl)-1H-pyrazol-3-yl)-[1,1′-biphenyl]-4-yl)amino)ethyl)acrylamide]: the EC50 in experiment [1] (Homo sapiens, HEK-293T) is 1000 to 20000 nM; in experiment [2] (Homo sapiens, 144 h) it was less than 1000 nM.

In the case of `CNS(=O)(=O)CCNc1ccc(-c2cccc(F)c2)cc1-c1ccn(Cc2cccnc2)n1` [compound 088], the EC50 is less than 1000 nM in experiment [1] (Homo sapiens, HEK-293T) and more than 10000 nM in experiment [2] (Homo sapiens, 144 h). In the case of `CNS(=O)(=O)CCNc1ccc(-c2ccc(Cl)cc2)cc1-c1ccn(C)n1` [compound 121, 2-((4′-chloro-3-(1-methyl-1H-pyrazol-3-yl)-[1,1′-biphenyl]-4-yl)amino)-N-methylethane-1-sulfonamide], the EC50 is less than 1000 nM in experiment [1] (Homo sapiens, HEK-293T) and 1000 to 10000 nM in experiment [2] (Homo sapiens, 144 h). Taken in the same sequence, the figures for `C=CC(=O)NCc1ccc(-c2ccccc2)cc1-c1ccn(C)n1` [compound 135, N-((3-(1-methyl-1H-pyrazol-3-yl)-[1,1′-biphenyl]-4-yl)methyl)acrylamide] were less than 1000 nM and less than 1000 nM.

Turning to `Cn1ccc(-c2cn(-c3ccc(F)cc3)c(=O)cc2CNS(C)(=O)=O)n1` [compound 237, N-((1-(4-fluorophenyl)-5-(1-methyl-1H-pyrazol-3-yl)-2-oxo-1,2-dihydropyridin-4-yl)methyl)methanesulfonamide], in experiment [1] (Homo sapiens, HEK-293T), the EC50 is more than 20000 nM. The same measure, in the same setting: in the case of `CNS(=O)(=O)NCc1cc(=O)n(-c2ccc(F)cc2)cc1-c1ccn(C)n1` [compound 238, N-methyl, N′-((1-(4-fluorophenyl)-5-(1-methyl-1H-pyrazol-3-yl)-2-oxo-1,2-dihydropyridin-4-yl)methyl)sulfamide] it was more than 20000 nM. In turn, `CCC(=O)NCc1ccc(-c2ccc(F)cc2)cc1-n1ccc(C)n1` [compound 242, N-((4′-fluoro-3-(3-methyl-1H-pyrazol-1-yl)-[1,1′-biphenyl]-4-yl)methyl)propionamide] displayed an EC50 in experiment [1] (Homo sapiens, HEK-293T) of more than 20000 nM. Same read-out and setting: in the case of `CCC(=O)NCc1cnc(-c2ccc(F)cc2)cc1-n1ncc(C)n1` [compound 245, N-((6-(4-fluorophenyl)-4-(4-methyl-2H-1,2,3-triazol-2-yl)pyridin-3-yl)methyl)propionamide] it was less than 1000 nM; in that of `C=CC(=O)NCc1cnc(-c2ccc(F)cc2)cc1-n1ccc(C(F)(F)F)n1` [compound 246, N-((6-(4-fluorophenyl)-4-(3-(trifluoromethyl)-1H-pyrazol-1-yl)pyridin-3-yl)methyl)acrylamide], more than 20000 nM.

`C=CC(=O)NCc1cnc(-c2ccc(F)cc2)cc1-n1ccc(C2CC2)n1` [compound 247, N-((4-(3-cyclopropyl-1H-pyrazol-1-yl)-6-(4-fluorophenyl)pyridin-3-yl)methyl)acrylamide] displayed an EC50 in experiment [1] (Homo sapiens, HEK-293T) of less than 1000 nM. On the same count and under the same terms, to `C=CC(=O)NCc1cnc(-c2ccc(F)cc2)cc1-n1cc(C(F)(F)F)cn1` [compound 248, N-((6-(4-fluorophenyl)-4-(4-(trifluoromethyl)-1H-pyrazol-1-yl)pyridin-3-yl)methyl)acrylamide] belongs less than 1000 nM; to `C=CC(=O)NCc1cnc(-c2ccc(F)cc2)cc1-n1nnnc1C` [compound 250, N-((6-(4-fluorophenyl)-4-(5-methyl-1H-tetrazol-1-yl)pyridin-3-yl)methyl)acrylamide], more than 20000 nM. Consider `CCC(=O)NCc1cnc(-c2ccc(F)cc2)cc1-n1nnc(C)n1` [compound 251, N-((6-(4-fluorophenyl)-4-(5-methyl-2H-tetrazol-2-yl)pyridin-3-yl)methyl)propionamide], for which the EC50 in experiment [1] (Homo sapiens, HEK-293T) is more than 20000 nM.

With `CCC(=O)NCc1cnc(-c2ccc(F)cc2)cc1-n1nnnc1C` [compound 252, N-((6-(4-fluorophenyl)-4-(5-methyl-1H-tetrazol-1-yl)pyridin-3-yl)methyl)propionamide], in experiment [1] (Homo sapiens, HEK-293T), the EC50 was more than 20000 nM. In experiment [1] (Homo sapiens, HEK-293T), `CCC(=O)N1CCC(c2ccc(-c3ccc(F)cc3)cc2-c2ccn(C)n2)C1` (stereo not shown) [compound 259, 1-(3-(4′-fluoro-3-(1-methyl-1H-pyrazol-3-yl)-[1,1′-biphenyl]-4-yl)pyrrolidin-1-yl)propan-1-one] came in with an EC50 of 1000 to 20000 nM. Take `CS(=O)(=O)N1CCC(c2ccc(-c3ccc(F)cc3)cc2-c2ccn(C(F)F)n2)C1` (stereo not shown) [compound 260, 1-(difluoromethyl)-3-(4′-fluoro-4-(1-(methylsulfonyl)pyrrolidin-3-yl)-[1,1′-biphenyl]-3-yl)-1H-pyrazole]: the concentration giving a half-maximal response (EC50) in experiment [1] (Homo sapiens, HEK-293T) was more than 20000 nM. Same read-out and setting: in the case of `CNS(=O)(=O)N1CCC(c2cnc(-c3ccc(F)cc3)cc2-c2ccn(C(F)F)n2)C1` (stereo not shown) [compound 263, 3-(4-(1-(difluoromethyl)-1H-pyrazol-3-yl)-6-(4-fluorophenyl)pyridin-3-yl)-N-methylpyrrolidine-1-sulfonamide] it was more than 20000 nM.
